{"source": "patent US6262095A", "about": "“Use of tricyclic derivatives of 1,4-dihydro-1,4-dioxo-1H-naphthalene, novel compounds obtained and their application in theraphy” (Laboratoire Innothera, priority 1995, dated 2001)", "key": {"[1]": {"tested_on": "pleurisy by carrageenin in rats", "assay": "Pleurisy induced by carrageenin in rats", "assay_type": "in vivo", "conditions": "rat, oral 3×5 mg", "protocol": "The anti-inflammatory activity of the compounds is also studied by measuring the inhibition of the edema and the leukocyte migration after the induction of pleurisy in rats by the injection of carrageenin into the pleural cavity (Almeida et al., J. Pharmacol. Exp. Therap., 1980, Vol. 214: p. 74). The rats are treated orally using the compounds 2 h before the injection of carrageenin, and 2 and 4 h after this injection. After a predetermined time (6 h) following the induction of pleurisy, the rats are sacrificed; the pleural liquid is recovered by aspiration, and its volume is measured. The leukocytic cells are counted using the \"cell counter\" technique. The results are expressed as the number of leukocytes in the exudate expressed with respect to 100 g of animal weight and compared with those of the control lot."}, "[2]": {"tested_on": "saphenous vein in rabbits", "assay": "Potentiation of the contractile response of the rabbit saphenous vein to serotonin", "assay_type": "cell-based", "protocol": "(§1) The contractile effects are measured in vitro under static conditions on vascular capacitance or resistance rings of saphenous, femoral, jugular, mesenteric, and caval veins . . . and on femoral, carotid, basilar, or mesenteric arteries, as well as the thoracic or abdominal aorta . . . in rats (Wistar, 200-250 g), rabbits (New Zealand, 2-2.5 kg), guinea pigs (Dunkin Hartley 250-300 g).\n(§2) The rings are placed in a chamber for isolated organs (25 mL for capacitance vessels and 2.5 mL for resistance vessels according to Mulvany), and maintained under isometric conditions using two rigid threads inserted inside the vessel, avoiding causing damage to the endothelium. The vessels are bathed in a modified Krebs solution (in mM: NaCl=118; KCl=4.6; CaCl2 =2.5; MgSO4 =1.2; KH2 PO4 =1.17; NaHCO3 =25; glucose=11), continuously aerated using a gaseous mixture of 95% O2 and 5% Co2, at a pH=7.4, and regulated by thermostat at 37° C. The rings are adjusted to their optimal point as far as the tension-length relationship is concerned. […] The pharmacological studies are carried out after a few standardized preliminary contractile stimulations using a depolarizing solution (hyperpotassic type obtained by replacing NaCl with KCl in equimolar quantities), along with rinsings and periods of equilibration in a pure physiological solution. […]"}, "[3]": {"tested_on": "hyperpermeability induced by zymosan in rats", "assay": "Inflammatory hyperpermeability induced by zymosan in rats", "assay_type": "in vivo, rat (Wistar)", "conditions": "rat, oral, 5 mg/kg", "protocol": "The vascular permeability is studied in vivo by measuring the extravasation of albumin, the quantity of which is determined using an albumin-binding dye (Evans blue).\nThe hyperpermeability is induced by the intradermal injection of a solution of histamine, bradykinin, or zymosan.\nThe abdominal walls of the rats (Wistar, 200-230 g) are shorn 1 h before the start of the experiment. The product to be tested is injected by the intraperitoneal route or orally 1-4 h before the sacrifice. The rats are anesthetized with a halothane mixture. They then receive an intradermal injection in their abdomen of 0.10 or 0.15 mL (or for histamine 6.7 or […]) of inflammatory agent and an intravenous injection of 1 mL of 0.5% Evans blue solution in the vein of the penis. These injections are carried out 30 min before the sacrificing.\n30 min after these two injections, the rats are sacrificed by cervical dislocation.\nAt the site of the injection of the inflammatory agent, the skin is cut and placed into glass tubes with a ground[-glass] neck containing 3 mL of fuming hydrochloric acid. […] After allowing the preparation to stand for 30 min, 7 mL of dichloromethane are added. The tubes are periodically agitated for 1 h. The aqueous phase is eliminated by aspiration, and the organic \"dichloromethane\" phase is filtered. The optical densities are quantified by absorption spectrophotometry at a wavelength of 620 nm, against a blank [control] containing only dichloromethane. The averages of the optical densities of the different lots of treated or control animals are calculated, then a percentage of variation of the values corresponding to the treated [experimental] animals compared to those of the control animals is calculated."}, "[4]": {"tested_on": "saphenous vein in rabbits", "assay": "Potentiation of the contractile response of the rabbit saphenous vein to electrical stimulation", "assay_type": "cell-based", "conditions": "Oryctolagus cuniculus, read-out: increase of contractile response due to electrical stimulation", "protocol": "as §1, §2"}, "[5]": {"tested_on": "perfused mesenteric venous network of rats", "assay": "Contraction of the perfused mesenteric venous network of rats", "assay_type": "cell-based", "conditions": "rat perfused mesenteric venous network, depolarizing hyperpotassic conditions; read-out: ED50 (contraction)", "protocol": "The contractile effects are also measured in vitro under dynamic flow conditions, by the pressure developed by the vascular beds that are perfused at a constant flow rate. At the mesenteric level, the selective effect on veins is studied using the model of a double simultaneous and separate infusion of the arterial and venous networks model developed by T. Warner (British J. Pharmacol., 1990, Vol. 99, pp. 427-433). The separation of the two networks is achieved by cutting the vessels and the tissues along the intestinal border. The networks are perfused at 2 mL.min^-1 with a Krebs solution (37.5° C.), which is aerated using 95% O2 and 5% CO2. In vivo, the arterial and venous pressures are measured in the anesthetized animal, under basal conditions and after circulatory arrest caused by the swelling of a balloon catheter introduced at the level of the left atrium. During the cardiac arrest, the venous tone (average circulatory filling pressure at a constant blood volume) is calculated from the venous and arterial pressures measured at equilibrium and corrected as a function of the relative differences in compliance between these two networks (Samar & Coleman, Am. J. Physiol., 1978, Vol. 234: pp. H94-100; Yamamoto et al., Am. J. Physiol., 1980, Vol. 238: pp. H823-828)."}, "[6]": {"tested_on": "arterial pressure of the conscious rat", "assay": "Arterial pressure of the conscious rat", "assay_type": "in vivo", "conditions": "oral 0.1-5-50 mg/kg", "protocol": "In the conscious animal, the arterial pressures are measured according to the classical method derived from Riva Rocci, by the analysis of the acoustical wave transmitted at the arterial level and transformed by a ceramic piezo transducer placed on the tail of the rat, downstream from a sleeve that is automatically inflated by a pressure generator. At the microcirculatory level, the variations in the sections of the veinules and arterioles are studied in vivo in the model of the dorsal cutaneous chamber of conscious hamsters, after a video microscopic recording (microscope Leitz Ergolux equipped with a halogen source for the illumination and its black-and-white CD video camera HPR 610) and computer analysis (software Visicap, Pack ICAP) of the images."}}, "data": [{"smiles": "O=C1c2ccccc2C(=O)c2sc(-c3ccco3)nc21", "note": "[Example n, 4,9-Dihydro-4,9-dioxo-2-(2-furyl)-naphtho[2,3-d]thiazole]", "values": [{"measurement": "volume of pulmonary exudate", "setting": "[1]", "value": "significantly decreases the volume of pulmonary exudate"}, {"measurement": "contractile response due to serotonin", "setting": "[2]", "value": "selectively potentiates"}, {"measurement": "Zymosan-induced hyperpermeability, effect after 2 h", "setting": "[3]; 2 h", "value": "0 % of the control"}, {"measurement": "Zymosan-induced hyperpermeability, effect after 4 h", "setting": "[3]; 4 h", "value": "-21 % of the control"}, {"measurement": "activation at 0.3 µM", "setting": "[4]", "value": 200, "unit": "%"}, {"measurement": "EC50", "setting": "[5]", "value": 300, "unit": "nM"}, {"measurement": "arterial pressure", "setting": "[6]", "value": "does not affect the arterial pressure"}]}]}
